For assay [1], the system named is HCV replicon (Huh-7 luc/neo cells). Put plainly: Suppression of HCV replicon replication by conditioned media from PBMC. It counts as cell-based, HCV type 1b. The settings on record: Hepatitis C virus, compound concentration applied to PBMCs giving 50% reduction of replicon luciferase activity, read-out: PBMC-HUH7_EC50. How it is done:
Activation of human TLR7 results in robust production of interferon by plasmacytoid dendritic cells present in human blood. The potential of compounds to induce interferon was evaluated by looking at the antiviral activity in the HCV replicon system upon incubation with conditioned media from peripheral blood mononuclear cells (PBMC). The HCV replicon assay is based on a bicistronic expression construct, as described by Lohmann et al. (Science (1999) 285: 110-113; Journal of Virology (2003) 77: 3007-15 3019) with modifications described by Krieger et al. (Journal of Virology (2001) 75: 4614-4624). The assay utilized the stably transfected cell line Huh-7 luc/neo harboring an RNA encoding a bicistronic expression construct comprising the wild type NS3-NS5B regions of HCV type 1b translated from an Internal Ribosome Entry Site (IRES) from encephalomyocarditis virus (EMCV), preceded by a reporter gene (Firefly-luciferase) and a selectable marker gene (neoR, neomycine phosphotransferase). The construct is flanked by 5′ and 3′ NTRs (non-translated regions) from HCV type 1b. Continued culture of the replicon cells in the presence of G418 (neoR) is dependent on the replication of the HCV RNA. The stably transfected replicon cells that replicate HCV RNA autonomously and to high levels, encoding inter alia luciferase, were used for profiling of the conditioned cell culture media.
Briefly, PBMCs were prepared from buffy coats of at least two donors using a standard Ficoll centrifugation protocol. Isolated PBMCs were resuspended in RPMI medium supplemented with 10% human AB serum and 2×10^5 cells/well were dispensed into 384-well plates containing compounds (70 μL total volume). After overnight incubation, 10 μL of supernatant was transferred to 384-well plates containing 2.2×10^3 replicon cells/well in 30 μL (plated the day before). Following 24 hours of incubation, replication was measured by assaying luciferase activity using 40 μL/well Steady Lite Plus substrate (Perkin Elmer) and measured with ViewLux ultraHTS microplate imager (Perkin Elmer). The inhibitory activity of each compound on the Huh7-luc/neo cells were reported as EC50 values, defined as the compound concentration applied to the PBMCs resulting in a 50% reduction of luciferase activity which in turn indicates the degree of replication of the replicon RNA on transfer of a defined amount of PBMC culture medium. Recombinant interferon α-2a (Roferon-A) was used as a standard control compound.
Background: In antiviral work, replicon cells carry a viral genome segment that copies itself.

The next assay addresses T1, human TLR8 (Homo sapiens, UniProt Q9NR97).
T1 construct: expressed in transfected cells; host or cells: HEK293
T1 sequence (Q9NR97 27-1041): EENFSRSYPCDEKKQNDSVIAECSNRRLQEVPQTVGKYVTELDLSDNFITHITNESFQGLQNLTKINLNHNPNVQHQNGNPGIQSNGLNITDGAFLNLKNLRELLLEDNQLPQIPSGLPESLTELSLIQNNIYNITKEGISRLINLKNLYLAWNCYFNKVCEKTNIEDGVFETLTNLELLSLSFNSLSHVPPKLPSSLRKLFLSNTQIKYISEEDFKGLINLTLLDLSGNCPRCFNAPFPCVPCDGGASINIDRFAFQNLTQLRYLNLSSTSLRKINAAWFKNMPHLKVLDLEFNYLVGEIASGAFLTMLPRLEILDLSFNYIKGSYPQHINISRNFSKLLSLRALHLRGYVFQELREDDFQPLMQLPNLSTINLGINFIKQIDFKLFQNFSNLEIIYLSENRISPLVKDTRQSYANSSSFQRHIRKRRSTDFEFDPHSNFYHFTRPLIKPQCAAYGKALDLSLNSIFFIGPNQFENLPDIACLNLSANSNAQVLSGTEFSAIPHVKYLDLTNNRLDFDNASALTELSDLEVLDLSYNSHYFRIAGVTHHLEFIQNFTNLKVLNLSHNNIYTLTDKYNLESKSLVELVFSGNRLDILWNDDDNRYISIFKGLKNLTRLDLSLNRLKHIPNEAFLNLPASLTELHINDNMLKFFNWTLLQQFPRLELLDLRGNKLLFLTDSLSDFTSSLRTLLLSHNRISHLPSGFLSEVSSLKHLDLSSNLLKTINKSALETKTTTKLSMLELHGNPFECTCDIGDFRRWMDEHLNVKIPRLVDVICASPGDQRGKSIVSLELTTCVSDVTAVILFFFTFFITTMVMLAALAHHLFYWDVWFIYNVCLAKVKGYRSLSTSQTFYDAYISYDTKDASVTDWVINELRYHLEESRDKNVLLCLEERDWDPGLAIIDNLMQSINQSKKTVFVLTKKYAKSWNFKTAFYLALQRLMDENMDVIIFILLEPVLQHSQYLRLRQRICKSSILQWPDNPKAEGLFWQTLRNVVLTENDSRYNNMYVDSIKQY
Put plainly: TLR8 wild type NFκB-luc cellular reporter assay. It counts as cell-based. Further details: unit not given here. To be noted: HEK293 NFκB-luc reporter, 6 hours incubation. The procedure:
(§1) The ability of compounds to activate human TLR7 and/or TLR8 was assessed in a cellular reporter assay using HEK293 cells transiently transfected with a TLR7 or TLR8 expression vector and NFκB-luc reporter construct. In one instance the TLR expression construct expresses the respective wild type sequence or a mutant sequence comprising a deletion in the second leucine-rich repeat of the TLR.
(§2) Briefly, HEK293 cells were grown in culture medium (DMEM supplemented with 10% FCS and 2 mM Glutamine). For transfection of cells in 10 cm dishes, cells were detached with Trypsin-EDTA, transfected with a mix of CMV-TLR7 or TLR8 plasmid (750 ng), NFκB-luc plasmid (375 ng) and a transfection reagent and incubated 24 hours at 37° C. in a humidified 5% CO2 atmosphere. Transfected cells were then detached with Trypsin-EDTA, washed in PBS and resuspended in medium to a density of 1.67×10^5 cells/mL. Thirty microliters of cells were then dispensed into each well in 384-well plates, where 10 μL of compound in 4% DMSO was already present. Following 6 hours incubation at 37° C., 5% CO2, the luciferase activity was determined by adding 15 μl of Steady Lite Plus substrate (Perkin Elmer) to each well and readout performed on a ViewLux ultraHTS microplate imager (Perkin Elmer). Dose response curves were generated from measurements performed in quadruplicates. Lowest effective concentrations (LEC) values, defined as the concentration that induces an effect which is at least two fold above the standard deviation of the assay, were determined for each compound.
On the technique in general: A reporter such as luciferase makes a cellular process visible.

Assay [2] deals with human TLR8 mutant (dIRR2). The assay can be described thus: TLR8 mutant (deletion in second leucine-rich repeat) NFκB-luc cellular reporter assay. The assay is classed as cell-based. The settings on record: HEK293 NFκB-luc reporter, mutant TLR8, 6 hours incubation. Further details: unit not given here. The procedure:
as §1, §2

In assay [3] the test system is human TLR7 mutant (dIRR2). Put plainly: TLR7 mutant (deletion in second leucine-rich repeat) NFκB-luc cellular reporter assay. The assay is classed as cell-based. More on the design: unit not given here. To be noted: HEK293 NFκB-luc reporter, mutant TLR7, 6 hours incubation. How it is done:
as §1, §2

The structures appear in SMILES notation.

For the compound `CCCC[C@@H](CO)Nc1nc(N)nc2cc(OC)c(OC)cc12` [Compound 4], in assay [1], the EC50 turned out to be 3 µM. This compound displayed a TLR8-wt_LEC at human TLR8 of 2.6. For the same compound, in assay [2], the TLR8-dIRR2_LEC came out at 1.7. In assay [3], this compound registered a TLR7-dIRR2_LEC of 2.4.

With `CCC[C@@H](CCO)Nc1nc(N)nc2cc(OC)c(OC)cc12` [Compound 5], in assay [1], the EC50 turned out to be 3.3 µM. The same compound registered a TLR8-wt_LEC on human TLR8 of 6.7. Further, in assay [2], the TLR8-dIRR2_LEC was 2.6. Further, the TLR7-dIRR2_LEC in assay [3] came out at 2.6.

`CCC[C@@H](CO)Nc1nc(N)nc2cc(OC)c(OC)cc12` [Compound 6]: the EC50 in assay [1] amounted to 3 µM. In addition, at human TLR8, the TLR8-wt_LEC is 4.4. The compound also had a TLR8-dIRR2_LEC in assay [2] of 2.3. This compound had a TLR7-dIRR2_LEC in assay [3] of 3.4.

Turning to `CC[C@H](C)[C@@H](CO)Nc1nc(N)nc2cc(OC)c(OC)cc12` [Compound 7], in assay [1], the EC50 was found to be 12.4 µM. In addition, the TLR8-wt_LEC on human TLR8 was determined as 13.8. In assay [2], this compound displayed a TLR8-dIRR2_LEC of 9.0. Also, in assay [3], the TLR7-dIRR2_LEC is on record as 3.8.

These data come from patent publication US8916575B2, “Quinazoline derivatives for the treatment of viral infections and further diseases” (Janssen R&D Ireland, priority 2011, dated 2014).
